# Data published in paper PMC4861708 (Frontiers in Cell and Developmental Biology, 2016).
# Where a SMILES comes first, the peptide text is derived from it. [ ]: non-standard residue; d: D form. The star is where a group is joined. Orn(α-tetramethylguanidino) = CN(C)C(=N[C@@H](CCCN)C(=O)*)N(C)C; Orn = NCCC[C@H](N)C(=O)O
# How the values were obtained:
# E. coli DSM 1103 = assay: Transmission electron microscopy, morphological changes; type: cell-based, Escherichia coli; conditions: 1 h
# Description: (§1) Peptide-bacteria mixtures were fixed (2% glutaraldehyde, 5 mmol/L CaCl2, 10 mmol/L MgCl2 in 0.1 mol/L sodium cacodylate buffer, pH 7.4) overnight at 4°C. […] Samples were rinsed with distilled water (5 × 10 min), incubated with aqueous uranylacetate (0.5% w/v) for 1 h at 4°C, washed with distilled water (3 × 10 min), and embedded in Epon. The hardened blocks were sectioned (50 nm) on a UCT ultramicrotome (Leica, Vienna, Austria), stained with uranyl acetate and lead citrate on an AC20 system (Leica), and visualized at a Tecnai 12 electron microscope (FEI, Eindhoven, The Netherlands) at 80 kV. Morphological effects were quantified on average for 25 cells per condition.
# P. aeruginosa elastase = target: T1, P. aeruginosa elastase (Pseudomonas aeruginosa, UniProt P14756); assay: Elastase assay (proteolytic stability); type: in vitro ADME; conditions: after 30 min and all later time points, elastase 12 units/mL, pH 8.3, 37°C
# T1 construct: purchased Merck (Darmstadt, Germany)
# Description: A stock solution of P. aeruginosa elastase (0.26 U/μL) was prepared in Tris-HCl (5 mmol/L, pH 8.3) and stored at −80°C. Peptides (0.5 g/L in 5 mmol/L Tris-HCl, pH 8.3) were incubated with elastase (0.012 U/μL) at 37°C under constant shaking (450 rpm) for 0, 0.5, 2, 4, and 6 h. Aliquots (10.5 μL) were precipitated with a mixture of acetonitrile and ethanol (1:1 v/v) containing 0.1% TFA (21 μL), centrifuged, the supernatant transferred into a new tube, and dried in vacuum. Samples were dissolved in aqueous acetonitrile (3% v/v) containing TFA (0.1% v/v) and analyzed by RP-HPLC using the conditions described above.
# P. aeruginosa DSM 1117 = assay: Transmission electron microscopy, morphological changes; type: cell-based, Pseudomonas aeruginosa; conditions: 1 h
# Description: as §1
# [1] = tested on: K. pneumoniae DSM 681 (ATCC 10031); type: cell-based, Klebsiella pneumoniae; conditions: DSM 681, 24 h
# Description: (§2) MICs of P. aeruginosa strains DSM 1117 (ATCC 27853), DSM 3227 (ATCC 19429), and DSM 9644 were determined in a microdilution broth assay using 50 or 100% MHB (11.5 and 23 g/L MHB, respectively) whereas MICs of E. coli DSM 1103 (ATCC 25922) and K. pneumoniae DSM 681 (ATCC 10031) were determined in TSB (30 g/L TSB). Peptides (1 g/L in water) were serially two-fold diluted in a 96-well microtiter plate (PS, sterile, flat bottom) in 50 μL of the corresponding medium to final concentrations of 512–4 μg/mL. Bacteria were grown in nutrient broth overnight and diluted to a cell concentration of 1.5 × 10^7 cells/mL in the corresponding medium. Cell densities were determined by using the McFarland standard as reference. An aliquot (50 μL) of the cell culture was added to each well and incubated (37°C, 24 h). The OD595 was determined in a SpectraMax 340PC (Molecular Devices, Sunnyvale, USA). Additionally, MIC values were also determined for high bacteria densities (5 × 10^8 cells/mL) corresponding to the conditions used for TEM, as described above.
# [2] = tested on: P. aeruginosa DSM 1117 (ATCC 27853); type: cell-based, Pseudomonas aeruginosa; conditions: DSM 1117, 24 h
# Description: as §2
# T1 sequence (P14756 198-498): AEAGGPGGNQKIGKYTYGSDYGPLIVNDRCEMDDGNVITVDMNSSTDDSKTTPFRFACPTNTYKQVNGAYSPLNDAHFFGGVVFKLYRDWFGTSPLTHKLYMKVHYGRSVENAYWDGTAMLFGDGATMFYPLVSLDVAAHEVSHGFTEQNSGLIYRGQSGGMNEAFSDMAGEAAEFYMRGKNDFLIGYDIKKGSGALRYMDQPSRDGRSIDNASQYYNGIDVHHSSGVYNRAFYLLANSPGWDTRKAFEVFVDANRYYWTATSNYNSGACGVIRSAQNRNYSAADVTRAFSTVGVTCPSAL
smiles,measurement,setting,value
"CC[C@H](C)[C@H](NC(=O)[C@H](CCCN)N=C(N(C)C)N(C)C)C(=O)N[C@@H](CCCN)C(=O)N[C@H](C(=O)N[C@@H](CCCN)C(=O)N[C@@H](CCCNC(=N)N)C(=O)N1CCC[C@H]1C(=O)N[C@H](C(=O)N[C@@H](Cc1ccc(O)cc1)C(=O)N[C@@H](CCCN)C(=O)N1CCC[C@H]1C(=O)N[C@@H](CCCNC(=N)N)C(=O)N1CCC[C@H]1C(=O)N[C@@H](CCCNC(=N)N)C(=O)N1CCC[C@H]1C(=O)N1CCC[C@H]1C(=O)N[C@@H](Cc1c[nH]cn1)C(=O)N1CCC[C@H]1C(=O)N[C@@H](CCCNC(=N)N)C(=O)N[C@@H](CC(C)C)C(=O)O)C(C)C)[C@@H](C)CC [Api795, gu-O(IO)2RPVYOPRPRPPHPRL-OH] ({Orn(α-tetramethylguanidino)}-I[Orn]I[Orn]RPVY[Orn]PRPRPPHPRL-OH)","Cell: r, ruptured",E. coli DSM 1103; 8 µg/mL,0%
same,DNA/Ribosomes relocalized,E. coli DSM 1103; 8 µg/mL,0%
same,"Fragments: +++, long and thick",E. coli DSM 1103; 8 µg/mL,0%
same,"Fragments: ++, long and thin",E. coli DSM 1103; 8 µg/mL,23%
same,"Fragments: +, small and thin",E. coli DSM 1103; 8 µg/mL,63%
same,"Fragments: -, no",E. coli DSM 1103; 8 µg/mL,13%
same,"Fragments: LV, large vesicles",E. coli DSM 1103; 8 µg/mL,0%
same,"Membrane: i, intact",E. coli DSM 1103; 8 µg/mL,3%
same,"Membrane: w, wrinkled",E. coli DSM 1103; 8 µg/mL,97%
same,Vesicle release weak,E. coli DSM 1103; 8 µg/mL,30%
same,"Cell: r, ruptured",E. coli DSM 1103; 32 µg/mL,0%
same,DNA/Ribosomes relocalized,E. coli DSM 1103; 32 µg/mL,0%
same,"Fragments: +++, long and thick",E. coli DSM 1103; 32 µg/mL,0%
same,"Fragments: ++, long and thin",E. coli DSM 1103; 32 µg/mL,10%
same,"Fragments: +, small and thin",E. coli DSM 1103; 32 µg/mL,57%
same,"Fragments: -, no",E. coli DSM 1103; 32 µg/mL,33%
same,"Fragments: LV, large vesicles",E. coli DSM 1103; 32 µg/mL,0%
same,"Membrane: i, intact",E. coli DSM 1103; 32 µg/mL,7%
same,"Membrane: w, wrinkled",E. coli DSM 1103; 32 µg/mL,93%
same,Vesicle release weak,E. coli DSM 1103; 32 µg/mL,43%
same,"Cell: r, ruptured",E. coli DSM 1103; 128 µg/mL,0%
same,DNA/Ribosomes relocalized,E. coli DSM 1103; 128 µg/mL,0%
same,"Fragments: +++, long and thick",E. coli DSM 1103; 128 µg/mL,0%
same,"Fragments: ++, long and thin",E. coli DSM 1103; 128 µg/mL,30%
same,"Fragments: +, small and thin",E. coli DSM 1103; 128 µg/mL,53%
same,"Fragments: -, no",E. coli DSM 1103; 128 µg/mL,17%
same,"Fragments: LV, large vesicles",E. coli DSM 1103; 128 µg/mL,0%
same,"Membrane: i, intact",E. coli DSM 1103; 128 µg/mL,17%
same,"Membrane: w, wrinkled",E. coli DSM 1103; 128 µg/mL,83%
same,Vesicle release weak,E. coli DSM 1103; 128 µg/mL,47%
same,"Cell: r, ruptured",E. coli DSM 1103; 512 µg/mL,0%
same,DNA/Ribosomes relocalized,E. coli DSM 1103; 512 µg/mL,30%
same,"Fragments: +++, long and thick",E. coli DSM 1103; 512 µg/mL,0%
same,"Fragments: ++, long and thin",E. coli DSM 1103; 512 µg/mL,37%
same,"Fragments: +, small and thin",E. coli DSM 1103; 512 µg/mL,63%
same,"Fragments: -, no",E. coli DSM 1103; 512 µg/mL,0%
same,"Fragments: LV, large vesicles",E. coli DSM 1103; 512 µg/mL,0%
same,"Membrane: i, intact",E. coli DSM 1103; 512 µg/mL,33%
same,"Membrane: w, wrinkled",E. coli DSM 1103; 512 µg/mL,67%
same,Vesicle release weak,E. coli DSM 1103; 512 µg/mL,60%
same,Peptide detected with elastase,P. aeruginosa elastase,92 ± 4%
same,Cells spongy,P. aeruginosa DSM 1117; 4 µg/mL,0%
same,"DNA/ribosomes relocalization: +++, extremely relocalized",P. aeruginosa DSM 1117; 4 µg/mL,0%
same,"DNA/ribosomes relocalization: ++, relocalized",P. aeruginosa DSM 1117; 4 µg/mL,23%
same,"DNA/ribosomes relocalization: +, starting",P. aeruginosa DSM 1117; 4 µg/mL,37%
same,"DNA/ribosomes relocalization: -, no",P. aeruginosa DSM 1117; 4 µg/mL,40%
same,"Membrane: b, broken",P. aeruginosa DSM 1117; 4 µg/mL,0%
same,"Membrane: i, intact",P. aeruginosa DSM 1117; 4 µg/mL,100%
same,"Membrane: r, ruptured",P. aeruginosa DSM 1117; 4 µg/mL,0%
same,"Ribosome clustering: +++, extremely clustered",P. aeruginosa DSM 1117; 4 µg/mL,0%
same,"Ribosome clustering: ++, clustered",P. aeruginosa DSM 1117; 4 µg/mL,0%
same,"Ribosome clustering: +, starting",P. aeruginosa DSM 1117; 4 µg/mL,70%
same,"Ribosome clustering: -, no",P. aeruginosa DSM 1117; 4 µg/mL,30%
same,Vesicle release,P. aeruginosa DSM 1117; 4 µg/mL,67%
same,"dissociated Fragments: ++, long and thin",P. aeruginosa DSM 1117; 4 µg/mL,3%
same,"dissociated Fragments: +, small and thin",P. aeruginosa DSM 1117; 4 µg/mL,3%
same,"dissociated Fragments: -, no",P. aeruginosa DSM 1117; 4 µg/mL,93%
same,"dissociated Fragments: LV, large vesicles",P. aeruginosa DSM 1117; 4 µg/mL,0%
same,Cells spongy,P. aeruginosa DSM 1117; 16 µg/mL,0%
same,"DNA/ribosomes relocalization: +++, extremely relocalized",P. aeruginosa DSM 1117; 16 µg/mL,0%
same,"DNA/ribosomes relocalization: ++, relocalized",P. aeruginosa DSM 1117; 16 µg/mL,10%
same,"DNA/ribosomes relocalization: +, starting",P. aeruginosa DSM 1117; 16 µg/mL,40%
same,"DNA/ribosomes relocalization: -, no",P. aeruginosa DSM 1117; 16 µg/mL,50%
same,"Membrane: b, broken",P. aeruginosa DSM 1117; 16 µg/mL,0%
same,"Membrane: i, intact",P. aeruginosa DSM 1117; 16 µg/mL,100%
same,"Membrane: r, ruptured",P. aeruginosa DSM 1117; 16 µg/mL,0%
same,"Ribosome clustering: +++, extremely clustered",P. aeruginosa DSM 1117; 16 µg/mL,0%
same,"Ribosome clustering: ++, clustered",P. aeruginosa DSM 1117; 16 µg/mL,0%
same,"Ribosome clustering: +, starting",P. aeruginosa DSM 1117; 16 µg/mL,30%
same,"Ribosome clustering: -, no",P. aeruginosa DSM 1117; 16 µg/mL,70%
same,"dissociated Fragments: ++, long and thin",P. aeruginosa DSM 1117; 16 µg/mL,0%
same,"dissociated Fragments: +, small and thin",P. aeruginosa DSM 1117; 16 µg/mL,0%
same,"dissociated Fragments: -, no",P. aeruginosa DSM 1117; 16 µg/mL,100%
same,"dissociated Fragments: LV, large vesicles",P. aeruginosa DSM 1117; 16 µg/mL,0%
same,Cells spongy,P. aeruginosa DSM 1117; 64 µg/mL,0%
same,"DNA/ribosomes relocalization: ++, relocalized",P. aeruginosa DSM 1117; 64 µg/mL,67%
same,"DNA/ribosomes relocalization: +, starting",P. aeruginosa DSM 1117; 64 µg/mL,10%
same,"DNA/ribosomes relocalization: -, no",P. aeruginosa DSM 1117; 64 µg/mL,10%
same,"Membrane: b, broken",P. aeruginosa DSM 1117; 64 µg/mL,10%
same,"Membrane: i, intact",P. aeruginosa DSM 1117; 64 µg/mL,90%
same,"Membrane: r, ruptured",P. aeruginosa DSM 1117; 64 µg/mL,3%
same,"Ribosome clustering: +++, extremely clustered",P. aeruginosa DSM 1117; 64 µg/mL,7%
same,"Ribosome clustering: ++, clustered",P. aeruginosa DSM 1117; 64 µg/mL,7%
same,"Ribosome clustering: +, starting",P. aeruginosa DSM 1117; 64 µg/mL,77%
same,"Ribosome clustering: -, no",P. aeruginosa DSM 1117; 64 µg/mL,10%
same,Vesicle release,P. aeruginosa DSM 1117; 64 µg/mL,50%
same,"dissociated Fragments: ++, long and thin",P. aeruginosa DSM 1117; 64 µg/mL,3%
same,"dissociated Fragments: +, small and thin",P. aeruginosa DSM 1117; 64 µg/mL,0%
same,"dissociated Fragments: -, no",P. aeruginosa DSM 1117; 64 µg/mL,97%
same,"dissociated Fragments: LV, large vesicles",P. aeruginosa DSM 1117; 64 µg/mL,0%
same,Cells spongy,P. aeruginosa DSM 1117; 512 µg/mL,10%
same,"DNA/ribosomes relocalization: +++, extremely relocalized",P. aeruginosa DSM 1117; 512 µg/mL,100%
same,"DNA/ribosomes relocalization: ++, relocalized",P. aeruginosa DSM 1117; 512 µg/mL,0%
same,"DNA/ribosomes relocalization: +, starting",P. aeruginosa DSM 1117; 512 µg/mL,0%
same,"DNA/ribosomes relocalization: -, no",P. aeruginosa DSM 1117; 512 µg/mL,0%
same,"Membrane: b, broken",P. aeruginosa DSM 1117; 512 µg/mL,80%
same,"Membrane: i, intact",P. aeruginosa DSM 1117; 512 µg/mL,20%
same,"Membrane: r, ruptured",P. aeruginosa DSM 1117; 512 µg/mL,63%
same,"Ribosome clustering: +++, extremely clustered",P. aeruginosa DSM 1117; 512 µg/mL,93%
same,"Ribosome clustering: ++, clustered",P. aeruginosa DSM 1117; 512 µg/mL,7%
same,"Ribosome clustering: +, starting",P. aeruginosa DSM 1117; 512 µg/mL,0%
same,"Ribosome clustering: -, no",P. aeruginosa DSM 1117; 512 µg/mL,0%
same,Vesicle release,P. aeruginosa DSM 1117; 512 µg/mL,7%
same,"dissociated Fragments: +, small and thin",P. aeruginosa DSM 1117; 512 µg/mL,0%
same,"dissociated Fragments: -, no",P. aeruginosa DSM 1117; 512 µg/mL,87%
same,"dissociated Fragments: LV, large vesicles",P. aeruginosa DSM 1117; 512 µg/mL,0%
same,"membranes ruptured, % of the cells",P. aeruginosa DSM 1117; 512 µg/mL,80%
same,"membranes ruptured, % of the cells",P. aeruginosa DSM 1117; 4 × MIC,10%
same,MIC K. pneumoniae DSM 681,[1],8 µg/mL
same,"MIC P. aeruginosa DSM 1117, high inoculum",[2],16 µg/mL
